Assay results published in article PMC11249626, “Fluorophore-Labeled Pyrrolones Targeting the Intracellular Allosteric Binding Site of the Chemokine Receptor CCR1” (ACS Pharmacology & Translational Science, 2024).

What was measured:
[1] = biological target: T1, human chemokine receptor CCR1 (Homo sapiens, UniProt P32246); assay: Cellular NanoBiT miniGi recruitment assay; format: cell-based; conditions: n = 3; read-out: EC50, miniGi recruitment, CCR1 activation
T1 construct: expressed in transfected cells; host or cells: HEK293T, transient
T1 sequence (P32246 1-355): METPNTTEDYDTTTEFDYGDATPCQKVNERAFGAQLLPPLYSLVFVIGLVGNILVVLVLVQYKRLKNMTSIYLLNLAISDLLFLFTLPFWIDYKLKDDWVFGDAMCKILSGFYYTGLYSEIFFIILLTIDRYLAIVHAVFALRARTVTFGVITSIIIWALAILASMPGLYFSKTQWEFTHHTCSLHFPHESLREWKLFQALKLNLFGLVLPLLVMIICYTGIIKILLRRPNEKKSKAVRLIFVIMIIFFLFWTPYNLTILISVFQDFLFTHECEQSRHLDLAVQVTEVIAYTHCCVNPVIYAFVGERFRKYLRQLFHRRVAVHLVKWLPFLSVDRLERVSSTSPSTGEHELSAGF
Description: Technologies) for 20 min.
Cellular NanoBiT miniGi recruitment assay s: Chemokine-induced Gi recruitment to the chemokine receptor CCR1 was monitored using a nanoluciferase complementation -based assay (NanoBiT, Promega). 20 5 x 10^6 HEK293T cells were plated in 10 cm dishes and cultured for 24 h before transfection with vectors encoding for the human chemokine receptor CCR1 C-terminally fused with SmBiT and miniGi (mG, engineered GTPase domain of Gα subunit) N-terminally fused with LgBiT. 24 h after transfection cells were harvested, distributed into white 96 -well plates (5 × 10^4 cells per well) and incubated for 1 h at 37 °C with compound 23 at concentrations ranging from 10 nM to 100 µM. The endogenous chemokine ligand CCL5 (3 nM, for CCR1) was then added, and luminescence generated upon nanoluciferase complementation in the presence of coelenterazine H was measured with a Mithras LB940 luminometer (Berthold Technologies) for 20 min. […]
(§1) Finally, the top 5% of the identified hits were subsequently docked to a homology model of CCR1 (vide infra). After visual examination of the obtained binding modes 24 hit compounds were identified for further investigation .
(§2) Molecular docking: For the docking studies in the course of our virtual screening campaign, the CCR1 protein was […]
(§3) 27, 28 CCR1 structure was optimized using the Quickprep and structure preparation wizard in MOE 24 using CHARMM27 forcefield. The protein was saved in mol2 format and loaded in GOLD.25, 26 The amino acids defining the IABS were listed in a text file to define the docking cavity. 50 GA runs were performed for docking CCR2-RA-[R] (4-[R]) and SN_12 (43), with the generated solutions clustered based on their RMSD with the threshold set to 0.75 Å using the complete linkage method. Docking runs were performed using ChemScore. […]

[2] = biological target: T1, human chemokine receptor CCR1; assay: Cellular NanoBiT β-arrestin recruitment assay; format: cell-based; conditions: n = 3; read-out: EC50, β-arrestin-2 recruitment, CCR1 activation
Description: (§4) CCR1 and CCR2 was monitored using a nanoluciferase complementation -based assay (NanoBiT, Promega). 17-19 5 x 10^6 HEK293T cells were plated in 10 cm dishes and cultured for 24 h before transfection with vectors encoding for the human chemokine receptor CCR1 or CCR2 C-terminally fused with SmBiT and β-arrestin 2 N-terminally fused with LgBiT. 24 h after transfection cells were harvested, distributed into white 96-well plates (5 × 10^4 cells per well) and incubated for 1 h at 37 °C with compound 23 at concentrations ranging from 10 nM to 10 µM. The endogenous chemokine ligand CCL5 (3 nM, for CCR1) or CCL2 (10 nM, for CCR2) was then added, and luminescence generated upon nanoluciferase complementation in the presence of coelenterazine H was measured with a Mithras LB940 luminometer (Berthold Technologies) for 20 min. […]
as §1, §2
27, 28 CCR1 structure was optimized using the Quickprep and structure preparation wizard in MOE 24 using CHARMM27 forcefield. The protein was saved in mol2 format and loaded in GOLD.25, 26 The amino acids defining the IABS were listed in a text file to define the docking cavity. 50 GA runs were performed for docking CCR2-RA-[R] (4-[R]) and SN_12 (43), with the generated solutions clustered based on their RMSD with the threshold set to 0.75 Å using the complete linkage method. Docking runs were performed using ChemScore. Flexibility of amino acids Lys63ICL1, Arg1313.50, Leu2406.36 and Arg3078.49 was taken in consideration in the docking runs, with conformational sampling of their side chains being done by the rotamer libraries implemented in GOLD.25, 26 For the docking studies with our ligand-linker conjugates (Figure S1), molecular ligand structures were geometry optimized as neutral molecules by means of Avogadro (Version 1.2.0)29 using the Universal Force Field (UFF) and the Steepest Decent Algorithm until convergence (ΔE = 0).
CCR113 was used for docking. The compounds were docked by means of AutoDock Vina 1.1.2.30, 31 An exhaustiveness value of 8 and a search space of 22 x 22 x 22 Å³ was applied around the unliganded intracellular allosteric binding site of CCR1. Twenty docking poses were generated for each ligand and inspected manually and according to the docking score.

[3] = biological target: T2, human chemokine receptor CCR2 (Homo sapiens, UniProt P41597); assay: Cellular NanoBiT β-arrestin recruitment assay; format: cell-based; conditions: n = 1; read-out: EC50, β-arrestin-2 recruitment, CCR2 activation
T2 construct: expressed in transfected cells; host or cells: HEK293T, transient
T2 sequence (P41597 whole entry): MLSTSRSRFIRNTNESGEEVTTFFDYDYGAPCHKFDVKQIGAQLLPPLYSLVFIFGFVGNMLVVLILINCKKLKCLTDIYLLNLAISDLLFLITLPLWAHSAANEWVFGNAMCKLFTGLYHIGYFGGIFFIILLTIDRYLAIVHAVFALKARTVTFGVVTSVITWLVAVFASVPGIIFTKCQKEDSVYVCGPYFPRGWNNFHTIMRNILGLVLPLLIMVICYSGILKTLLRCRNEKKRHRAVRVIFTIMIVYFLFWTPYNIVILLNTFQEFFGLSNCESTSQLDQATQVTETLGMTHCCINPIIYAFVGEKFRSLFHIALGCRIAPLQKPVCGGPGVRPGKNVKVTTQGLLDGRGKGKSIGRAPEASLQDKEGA
Description: (PerkinElmer, Groningen, NL).
as §4, with “Cellular NanoBiT β-arrestin recruitment assays: Chemokine-induced β-arrestin-2 recruitment to chemokine receptors CCR1 and” for “CCR1 and”
as §1, §2, §3

CCR1 = biological target: T3, CCR1 (Homo sapiens, UniProt P32246); assay: Membrane-based NanoBRET saturation binding assay, CCR1_Nluc membranes from HEK293T cells; parameters: Promega pNLF1-C (Nluc) #CCR010TN00; host or cells: HEK293T, transient (PEI); conditions: saturation binding of fluorescent ligand, read-out: KD (equilibrium, KD(eq.))
T3 sequence (P32246 1-355): T1 sequence (P32246 1-355)
Text: To evaluate the CCR1 affinity of previously reported (8–9) and new fluorescently labeled pyrrolones (11–12), we developed a NanoBRET-based binding assay (Figures 4A–H and S2A–J). To this end, we used a previously reported CCR1 construct (hereafter referred to as CCR1_Nluc) with a small and bright luciferase variant (nanoluciferase,[52] Nluc), fused to the intracellular C-terminus of CCR1 (Figures 4A and S2A).[47] […] This was expected, given the very low CCR2/CCR1 selectivity of the parental ligands 4 and 5 (Figure 1).[33] For further studies, we selected 12 due to its highest CCR1 affinity.
Cell culture: HEK293T cells were cultured as previously described.8 In brief, HEK293T cells (gift from Chair of Physiology, Prof. Dr. Alzheimer, FAU Erlangen-Nürnberg) were grown on 10 cm culture dishes at 37 °C and 5% CO2. As growth medium, Dulbecco's Modified Eagle Medium (DMEM)/F12 (Invitrogen) supplemented with 10% fetal bovine serum (FBS, Gibco™ Fetal Bovine Serum, qualified, Brazil), L-glutamine (final concentration: 2 mM; from Gibco™ L-glutamine 200 mM, 100X), penicillin (final concentration: 100 units/mL), and streptomycin (final concentration: 100 µg/mL; from Gibco™ Penicillin-Streptomycin 10,000 U/mL) was used. Cells were split every three to four days and regularly confirmed to be free of mycoplasma contamination using the luminescence-based MycoAlert Plus Kit (Lonza).
Transient transfection using polyethylenimine: For transfection, we used a previously published procedure.8 In brief, HEK293T cells were plated onto culture dishes (Ø 10 cm or Ø 15 cm) and grown to a confluence of approximately 50% at 37 °C and 5% CO2. The growth medium was renewed one-hour before transfection. The transfection mix was prepared, as described in the following. Solution A (0.4-2.2% total DNA (1-5.5 µg) in Gibco™ phosphate buffered saline, pH 7.4) and solution B (3% PEI (linear, 25 kDa, from Polysciences) solution prepared from a PEI stock solution (0.4 µg/µL) in PBS without MgCl2 and CaCl2) were mixed one to one, the resulting mixture was vortexed for 5 s and incubated for 30 min at room temperature. The pre-incubated transfection mix was added dropwise to the cells and cell cultivation was continued […]
Membrane preparation: Membranes were prepared as previously reported.8 In brief, membranes from HEK293T cells transiently expressing the respective GPCR were prepared as follows. The medium of the transfected cells was refreshed after 24 h before cells were harvested 48 h post-transfection. […]
Finally, the protein concentration was determined using the Lowry method.9 cDNA constructs: The CCR1-Nluc fusion construct (CCR1_Nluc) in pcDNA3.1 was generated as previously reported1 using the Gibson Assembly10 (New England Biolabs) method. […]

CCR2 = biological target: T4, CCR2 (Homo sapiens, UniProt P41597); parameters: method as in PMID 35838163; conditions: membrane-based setup; cited from earlier work
T4 construct: host or cells: HEK293T, transient
T4 sequence (P41597 1-360 isoform P41597-2): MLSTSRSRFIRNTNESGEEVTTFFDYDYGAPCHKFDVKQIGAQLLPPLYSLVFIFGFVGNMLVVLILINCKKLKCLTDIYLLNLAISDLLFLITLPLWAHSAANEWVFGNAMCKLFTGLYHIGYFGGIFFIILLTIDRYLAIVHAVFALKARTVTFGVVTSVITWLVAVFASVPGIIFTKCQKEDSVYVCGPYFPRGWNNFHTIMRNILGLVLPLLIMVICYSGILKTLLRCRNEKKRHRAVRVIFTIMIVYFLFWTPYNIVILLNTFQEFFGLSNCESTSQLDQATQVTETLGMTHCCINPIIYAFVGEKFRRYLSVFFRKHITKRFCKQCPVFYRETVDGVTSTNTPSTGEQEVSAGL

| Compound | EC50 [1] [nM] | EC50 [2] [nM] | EC50 [3] [nM] | Kd (CCR1) [nM] | Kd (CCR2) [nM] |
| --- | --- | --- | --- | --- | --- |
| CCL5: endogenous chemokine ligand, CCR1 agonist | 2.93 | 1.01 | – | – | – |
| CCL2: endogenous chemokine ligand, CCR2 agonist | – | – | 7.43 | – | – |
| CN(C)c1ccc2c(-c3cc(C(=O)NCc4cn(CCCC(=O)C5=C(O)C(=O)N(c6ccc(Cl)cc6F)C5C5CCCCC5)nn4)ccc3C(=O)[O-])c3ccc(=[N+](C)C)cc-3oc2c1 (stereo not shown) [compound 8] | – | – | – | 11300 ± 800 | 2260 |
| CN(C)c1ccc2c(-c3cc(C(=O)NCc4cn(CCCC(=O)C5=C(O)C(=O)N(c6ccc(Br)cc6F)C5C5CCCCC5)nn4)ccc3C(=O)[O-])c3ccc(=[N+](C)C)cc-3oc2c1 (stereo not shown) [compound 9] | – | – | – | 14900 ± 2100 | 2270 |
